Reference: patent US11208412B2 (DAEGU-GYEONGBUK MEDICAL INNOVATION FOUNDATION, priority 2017, dated 2021)

Columns and labels:
Test in all cases: Kinase selectivity, DiscoverX scanMAX Kinase assay panel (% control)
Assay type in all cases: binding
[1] = target: T1, kinases of the scanMAX Kinase assay panel (Homo sapiens, UniProt P54753); settings: EPHB3; 1 uM
T1 construct: purchased DiscoverX Co. (contract measurement) scanMAX Kinase assay panel
T1 sequence (P54753 34-998): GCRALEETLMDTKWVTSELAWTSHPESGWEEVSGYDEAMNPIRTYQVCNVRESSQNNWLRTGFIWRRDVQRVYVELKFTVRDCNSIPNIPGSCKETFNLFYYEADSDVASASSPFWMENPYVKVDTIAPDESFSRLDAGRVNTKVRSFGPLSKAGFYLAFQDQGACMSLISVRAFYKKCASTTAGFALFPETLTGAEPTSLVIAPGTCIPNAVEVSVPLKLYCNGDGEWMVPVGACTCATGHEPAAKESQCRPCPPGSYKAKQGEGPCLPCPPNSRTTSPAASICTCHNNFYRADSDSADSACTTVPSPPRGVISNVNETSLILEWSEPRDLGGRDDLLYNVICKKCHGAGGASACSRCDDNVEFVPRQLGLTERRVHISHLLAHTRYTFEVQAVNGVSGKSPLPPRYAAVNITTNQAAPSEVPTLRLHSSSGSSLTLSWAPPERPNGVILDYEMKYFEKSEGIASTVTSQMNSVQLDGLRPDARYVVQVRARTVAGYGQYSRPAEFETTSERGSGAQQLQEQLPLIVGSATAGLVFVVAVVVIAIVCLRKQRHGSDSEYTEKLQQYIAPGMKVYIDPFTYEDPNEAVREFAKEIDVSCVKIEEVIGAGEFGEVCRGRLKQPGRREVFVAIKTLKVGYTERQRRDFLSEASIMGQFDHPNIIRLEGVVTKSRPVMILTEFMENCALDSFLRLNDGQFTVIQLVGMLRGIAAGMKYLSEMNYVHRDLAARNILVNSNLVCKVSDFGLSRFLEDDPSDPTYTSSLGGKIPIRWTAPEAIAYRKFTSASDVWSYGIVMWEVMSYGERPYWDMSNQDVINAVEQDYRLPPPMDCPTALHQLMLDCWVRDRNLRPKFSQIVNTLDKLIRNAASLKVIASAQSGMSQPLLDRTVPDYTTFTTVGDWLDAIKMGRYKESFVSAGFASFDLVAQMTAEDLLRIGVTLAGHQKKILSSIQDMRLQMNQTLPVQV
How it was run: (§1)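 Binding-panel profiling at one concentration, 1 uM in DMSO; values are % of DMSO control after subtracting the positive-control floor. Less than 35% means activity on that kinase.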

[2] = target: T2, kinases of the scanMAX Kinase assay panel (Homo sapiens, UniProt Q9BRS2); settings: kinase RIOK1; 1 uM in DMSO
T2 construct: purchased DiscoverX Co. (contract measurement) scanMAX Kinase assay panel
T2 sequence (Q9BRS2 1-568): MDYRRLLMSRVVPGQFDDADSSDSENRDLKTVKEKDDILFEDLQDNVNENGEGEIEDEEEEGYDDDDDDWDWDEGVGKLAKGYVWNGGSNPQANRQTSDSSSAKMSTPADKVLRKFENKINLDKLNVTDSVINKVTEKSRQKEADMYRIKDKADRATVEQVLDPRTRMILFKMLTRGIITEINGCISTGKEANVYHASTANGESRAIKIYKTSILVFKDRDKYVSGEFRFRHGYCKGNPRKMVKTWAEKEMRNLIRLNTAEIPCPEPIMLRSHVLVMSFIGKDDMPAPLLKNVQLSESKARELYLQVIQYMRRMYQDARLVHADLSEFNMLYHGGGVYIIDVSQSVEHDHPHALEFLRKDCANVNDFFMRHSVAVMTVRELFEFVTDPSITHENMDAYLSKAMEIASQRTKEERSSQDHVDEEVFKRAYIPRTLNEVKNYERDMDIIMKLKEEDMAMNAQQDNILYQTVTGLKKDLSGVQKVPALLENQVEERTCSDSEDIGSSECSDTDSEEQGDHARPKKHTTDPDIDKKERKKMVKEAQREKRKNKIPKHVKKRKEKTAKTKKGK
How it was run: as §1

[3] = target: T3, kinases of the scanMAX Kinase assay panel (Homo sapiens, UniProt Q9UHD2); settings: kinase TBK1; 1 uM in DMSO
T3 construct: purchased DiscoverX Co. (contract measurement) scanMAX Kinase assay panel
T3 sequence (Q9UHD2 1-729): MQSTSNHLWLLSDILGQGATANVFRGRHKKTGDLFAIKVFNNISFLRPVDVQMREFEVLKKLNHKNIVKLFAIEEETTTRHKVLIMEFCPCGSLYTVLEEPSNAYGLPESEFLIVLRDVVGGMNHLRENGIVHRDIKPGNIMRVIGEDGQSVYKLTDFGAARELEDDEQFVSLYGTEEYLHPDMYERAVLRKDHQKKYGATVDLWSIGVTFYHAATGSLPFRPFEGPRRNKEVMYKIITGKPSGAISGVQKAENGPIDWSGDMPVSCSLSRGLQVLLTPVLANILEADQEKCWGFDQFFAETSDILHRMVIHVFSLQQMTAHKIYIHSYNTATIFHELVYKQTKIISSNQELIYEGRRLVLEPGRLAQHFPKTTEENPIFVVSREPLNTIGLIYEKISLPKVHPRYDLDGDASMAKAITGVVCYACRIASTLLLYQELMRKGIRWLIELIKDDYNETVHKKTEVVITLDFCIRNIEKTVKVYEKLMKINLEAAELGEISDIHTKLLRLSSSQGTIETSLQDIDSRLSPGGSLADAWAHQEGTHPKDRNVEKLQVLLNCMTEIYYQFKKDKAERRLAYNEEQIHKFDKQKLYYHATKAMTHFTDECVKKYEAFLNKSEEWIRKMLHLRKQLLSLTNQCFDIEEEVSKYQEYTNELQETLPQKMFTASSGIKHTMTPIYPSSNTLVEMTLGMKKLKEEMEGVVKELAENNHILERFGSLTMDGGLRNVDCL
How it was run: as §1

[4] = target: T4, kinases of the scanMAX Kinase assay panel (Homo sapiens, UniProt P17948); settings: FLT1; 1 uM
T4 construct: purchased DiscoverX Co. (contract measurement) scanMAX Kinase assay panel
T4 sequence (P17948 27-1338): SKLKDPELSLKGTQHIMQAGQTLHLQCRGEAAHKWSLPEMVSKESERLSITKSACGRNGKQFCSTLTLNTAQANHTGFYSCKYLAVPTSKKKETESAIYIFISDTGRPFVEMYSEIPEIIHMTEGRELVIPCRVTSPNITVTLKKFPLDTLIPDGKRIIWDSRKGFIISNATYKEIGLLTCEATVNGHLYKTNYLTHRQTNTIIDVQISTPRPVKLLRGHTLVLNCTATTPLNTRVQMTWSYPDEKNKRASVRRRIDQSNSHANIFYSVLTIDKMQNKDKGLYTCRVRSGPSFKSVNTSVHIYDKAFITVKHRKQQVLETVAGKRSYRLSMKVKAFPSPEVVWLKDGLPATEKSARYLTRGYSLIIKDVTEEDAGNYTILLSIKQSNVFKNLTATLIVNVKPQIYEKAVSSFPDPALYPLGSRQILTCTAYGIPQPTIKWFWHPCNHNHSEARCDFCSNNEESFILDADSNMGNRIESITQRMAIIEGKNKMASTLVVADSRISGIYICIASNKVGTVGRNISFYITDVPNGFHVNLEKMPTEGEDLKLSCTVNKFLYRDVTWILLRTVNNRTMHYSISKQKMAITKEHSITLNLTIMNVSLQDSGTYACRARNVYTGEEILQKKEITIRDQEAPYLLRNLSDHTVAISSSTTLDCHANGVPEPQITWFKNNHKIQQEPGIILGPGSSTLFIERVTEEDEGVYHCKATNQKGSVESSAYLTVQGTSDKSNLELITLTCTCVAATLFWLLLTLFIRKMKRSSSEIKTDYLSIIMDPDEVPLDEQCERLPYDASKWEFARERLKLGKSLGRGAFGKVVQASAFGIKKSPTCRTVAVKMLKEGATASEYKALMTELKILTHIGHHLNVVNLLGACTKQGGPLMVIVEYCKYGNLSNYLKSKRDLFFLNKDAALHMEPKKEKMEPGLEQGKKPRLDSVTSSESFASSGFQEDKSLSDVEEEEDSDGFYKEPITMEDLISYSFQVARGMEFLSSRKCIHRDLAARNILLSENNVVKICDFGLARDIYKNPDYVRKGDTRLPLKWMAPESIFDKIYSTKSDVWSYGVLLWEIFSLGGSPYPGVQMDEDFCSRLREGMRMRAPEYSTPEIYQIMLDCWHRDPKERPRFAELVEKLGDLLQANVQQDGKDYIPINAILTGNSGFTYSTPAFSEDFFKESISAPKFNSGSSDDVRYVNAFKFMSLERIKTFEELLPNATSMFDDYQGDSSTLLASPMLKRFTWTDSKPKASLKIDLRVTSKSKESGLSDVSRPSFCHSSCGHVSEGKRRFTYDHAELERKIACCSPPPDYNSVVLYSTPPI
How it was run: as §1

[5] = target: T5, kinases of the scanMAX Kinase assay panel (Homo sapiens, UniProt O94921); settings: PFTK1; 1 uM
T5 construct: purchased DiscoverX Co. (contract measurement) scanMAX Kinase assay panel
T5 sequence (O94921 whole entry): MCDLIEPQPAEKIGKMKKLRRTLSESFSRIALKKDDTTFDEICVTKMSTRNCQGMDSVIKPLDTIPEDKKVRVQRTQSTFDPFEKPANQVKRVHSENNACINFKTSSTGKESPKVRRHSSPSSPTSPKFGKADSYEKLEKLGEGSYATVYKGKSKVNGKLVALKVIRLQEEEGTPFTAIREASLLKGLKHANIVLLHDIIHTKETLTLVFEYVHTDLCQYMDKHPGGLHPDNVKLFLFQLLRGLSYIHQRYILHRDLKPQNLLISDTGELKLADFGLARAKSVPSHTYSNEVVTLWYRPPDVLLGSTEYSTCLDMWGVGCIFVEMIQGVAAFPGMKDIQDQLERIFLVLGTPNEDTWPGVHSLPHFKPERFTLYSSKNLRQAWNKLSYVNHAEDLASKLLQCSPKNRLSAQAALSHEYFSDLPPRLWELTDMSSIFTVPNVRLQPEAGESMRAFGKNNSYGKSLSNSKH
How it was run: as §1

[6] = target: T6, kinases of the scanMAX Kinase assay panel (Homo sapiens, UniProt P08581, M1250T); settings: MET(M1250T); 1 uM
T6 construct: purchased DiscoverX Co. (contract measurement) scanMAX Kinase assay panel
T6 sequence (P08581 25-1390 M1250T): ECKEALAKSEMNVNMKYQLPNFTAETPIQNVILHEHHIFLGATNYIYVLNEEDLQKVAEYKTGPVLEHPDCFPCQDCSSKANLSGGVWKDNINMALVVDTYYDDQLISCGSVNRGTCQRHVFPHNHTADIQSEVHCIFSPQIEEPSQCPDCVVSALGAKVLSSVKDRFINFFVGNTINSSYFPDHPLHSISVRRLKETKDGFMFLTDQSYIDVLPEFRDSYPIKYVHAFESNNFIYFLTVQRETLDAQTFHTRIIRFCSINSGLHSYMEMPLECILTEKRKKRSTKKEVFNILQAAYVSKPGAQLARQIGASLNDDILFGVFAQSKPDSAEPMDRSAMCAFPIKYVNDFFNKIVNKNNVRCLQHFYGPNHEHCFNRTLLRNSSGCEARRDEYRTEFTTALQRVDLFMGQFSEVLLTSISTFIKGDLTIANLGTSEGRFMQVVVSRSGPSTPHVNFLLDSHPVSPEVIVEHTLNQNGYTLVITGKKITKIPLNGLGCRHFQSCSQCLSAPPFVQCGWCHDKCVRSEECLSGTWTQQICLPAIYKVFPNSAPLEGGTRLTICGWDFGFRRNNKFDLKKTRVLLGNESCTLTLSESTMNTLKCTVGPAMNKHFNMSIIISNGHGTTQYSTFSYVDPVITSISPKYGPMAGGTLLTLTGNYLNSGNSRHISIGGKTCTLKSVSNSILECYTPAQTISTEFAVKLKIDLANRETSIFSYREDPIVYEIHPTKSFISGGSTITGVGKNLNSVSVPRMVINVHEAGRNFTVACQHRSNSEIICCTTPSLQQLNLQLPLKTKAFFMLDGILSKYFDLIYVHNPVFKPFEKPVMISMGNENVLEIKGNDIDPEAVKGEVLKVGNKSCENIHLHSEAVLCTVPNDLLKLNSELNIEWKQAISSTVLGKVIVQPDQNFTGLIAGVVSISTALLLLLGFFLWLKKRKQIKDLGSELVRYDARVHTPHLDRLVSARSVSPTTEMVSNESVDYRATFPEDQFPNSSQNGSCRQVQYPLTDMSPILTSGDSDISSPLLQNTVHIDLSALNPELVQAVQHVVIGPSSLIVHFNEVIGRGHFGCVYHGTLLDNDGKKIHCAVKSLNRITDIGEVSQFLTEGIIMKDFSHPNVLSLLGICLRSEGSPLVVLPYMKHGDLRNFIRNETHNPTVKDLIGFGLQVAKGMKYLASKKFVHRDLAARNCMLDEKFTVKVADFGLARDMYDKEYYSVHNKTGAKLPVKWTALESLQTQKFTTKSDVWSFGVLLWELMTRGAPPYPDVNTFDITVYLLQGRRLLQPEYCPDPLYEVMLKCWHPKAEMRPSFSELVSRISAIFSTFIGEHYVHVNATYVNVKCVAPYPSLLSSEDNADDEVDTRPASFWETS
How it was run: as §1

[7] = target: T7, kinases of the scanMAX Kinase assay panel (Homo sapiens, UniProt Q9NYY3); settings: PLK2; 1 uM
T7 construct: purchased DiscoverX Co. (contract measurement) scanMAX Kinase assay panel
T7 sequence (Q9NYY3 whole entry): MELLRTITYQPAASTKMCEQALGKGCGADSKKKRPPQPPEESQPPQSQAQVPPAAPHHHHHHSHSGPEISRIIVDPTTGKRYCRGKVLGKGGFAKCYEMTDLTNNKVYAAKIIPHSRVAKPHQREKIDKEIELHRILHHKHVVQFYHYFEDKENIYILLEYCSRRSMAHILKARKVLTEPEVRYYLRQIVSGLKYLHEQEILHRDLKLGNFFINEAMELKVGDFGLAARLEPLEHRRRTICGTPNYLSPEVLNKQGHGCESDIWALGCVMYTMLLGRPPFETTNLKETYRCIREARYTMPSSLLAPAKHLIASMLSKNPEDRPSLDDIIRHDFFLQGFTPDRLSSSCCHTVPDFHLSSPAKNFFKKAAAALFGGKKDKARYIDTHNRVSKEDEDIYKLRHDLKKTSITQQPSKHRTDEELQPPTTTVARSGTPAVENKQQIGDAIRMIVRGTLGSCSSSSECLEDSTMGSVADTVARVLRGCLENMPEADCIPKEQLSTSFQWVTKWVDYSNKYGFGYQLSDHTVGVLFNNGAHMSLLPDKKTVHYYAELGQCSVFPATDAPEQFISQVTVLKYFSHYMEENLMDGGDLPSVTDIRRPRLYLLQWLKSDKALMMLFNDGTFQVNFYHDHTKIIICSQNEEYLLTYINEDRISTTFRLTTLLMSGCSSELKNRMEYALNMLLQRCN
How it was run: as §1

CNc1nc(Nc2ccc(C(=O)N3CCOCC3)cc2OC)nc2[nH]cc(C#N)c12 [Example 1, 2-((2-methoxy-4-(morpholine-4-carbonyl)phenyl)amino)-4-(methylamino)-7H-pyrrolo[2,3-d]pyrimidine-5-carbonitrile]
remaining binding at 1 µM [1]: 93% | remaining binding at 1 µM [2]: 100% | remaining binding at 1 µM [3]: 85% | remaining binding at 1 µM [4]: 99% | remaining binding at 1 µM [5]: 97% | remaining binding at 1 µM [6]: 100% | remaining binding at 1 µM [7]: 81%

CC1(Nc2nc(Nc3cnn([C@H]4CCN(C5COC5)C[C@@H]4F)c3Cl)nc3[nH]cc(C#N)c23)CC1 [Example 52, 2-((5-chloro-1-((3S,4S)-3-fluoro-1-(oxetane-3-yl)piperidine-4-yl)-1H-pyrazole-4-yl)amino)((1-methylcyclopropyl)amino)-7H-pyrrolo[2,3-d]pyrimidine-5-carbonitrile]
remaining binding at 1 µM [1]: 95% | remaining binding at 1 µM [2]: 0.7% | remaining binding at 1 µM [3]: 4.8% | remaining binding at 1 µM [4]: 6.2% | remaining binding at 1 µM [5]: 100% | remaining binding at 1 µM [6]: 28% | remaining binding at 1 µM [7]: 93%

CCNc1nc(Nc2ccc(C(=O)N3CCC(N4CCOCC4)CC3)cc2OC)nc2[nH]cc(C(F)(F)F)c12 [Example 104, (4-((4-(ethylamino)-5-(trifluoromethyl)-7H-pyrrolo[2,3-d]pyrimidine-2-yl)amino)-3-methoxyphenyl)(4-morpholinopiperidine-1-yl)methanone]
remaining binding at 1 µM [1]: 100% | remaining binding at 1 µM [2]: 100% | remaining binding at 1 µM [3]: 84% | remaining binding at 1 µM [4]: 100% | remaining binding at 1 µM [5]: 96% | remaining binding at 1 µM [6]: 100% | remaining binding at 1 µM [7]: 100%
